This experiment deals with Programmed cell death 1 ligand 1 (Homo sapiens, UniProt Q9NZQ7). The experiment can be described thus: Enzyme-Linked Immunosorbent Assay ELISA. The method, then: 96 Well plates were coated with […] of human PD-L1 (obtained from R&D) in PBS overnight at 4° C. The wells were then blocked with 2% BSA in PBS (W/V) with 0.05% TWEEN-20 for 1 hour at 37° C. The plates were washed 3 times with PBS/0.05% TWEEN-20 and the compounds were serial diluted (1:5) in dilution medium and added to the ELISA plates. Human PD-1 and biotin 0.3 μg/mL (ACRO Biosystems) were added and incubated for 1 hour at 37° C. then washed 3 times with PBS/0.05% TWEEN-20. A second block was performed with 2% BSA in PBS (W/V)/0.05% TWEEN-20 for 10 min at 37° C. and was washed 3 times with PBS/0.05% TWEEN-20. Streptavidin-HRP was added for 1 hour at 37° C. then washed 3 times with PBS/0.05% TWEEN-20. TMB substrate was added and reacted for 20 min at 37° C. A stop solution (2 N aqueous H2SO4) was added. The absorbance was read at 450 nm using a micro-plate spectrophotometer.
Sequence of Programmed cell death 1 ligand 1 (Q9NZQ7 whole entry): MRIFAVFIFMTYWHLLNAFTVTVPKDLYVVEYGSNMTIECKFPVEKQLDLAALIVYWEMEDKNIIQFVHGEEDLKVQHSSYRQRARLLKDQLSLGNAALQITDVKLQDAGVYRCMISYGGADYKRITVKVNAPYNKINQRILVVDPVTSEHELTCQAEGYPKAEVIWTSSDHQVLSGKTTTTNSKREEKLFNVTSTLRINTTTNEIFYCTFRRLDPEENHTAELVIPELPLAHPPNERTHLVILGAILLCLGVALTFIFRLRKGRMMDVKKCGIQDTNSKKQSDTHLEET
For orientation: IC50 means the concentration needed to halve the response being measured. Higher therefore signals weaker potency in that assay. On to `CC1(F)CCN(CCCOc2cccc(-c3cccc4c3CC[C@@H]4Oc3cc(OCc4cncc(C#N)c4)c(CN[C@H]4CCC(=O)NC4)cc3Cl)c2Cl)CC1` [US10919852, Compound TABLE 1.280], for which the IC50 result was “in the range around 253 nM”. Under `Cc1c(OCCCN2CCC(C)(F)CC2)cccc1-c1cccc2c1CC[C@@H]2Oc1cc(OCc2cc(C#N)cc(C#N)c2)c(CN[C@@H]2CCC[C@H]2O)cc1Cl` [US10919852, Compound TABLE 1.294] stands “in the range around 253 nM”. In the case of `Cc1c(OCCCN2CC[C@H](F)C[C@@H]2C)cccc1-c1cccc2c1CC[C@@H]2Oc1cc(OCc2cc(C#N)cc(C#N)c2)c(CN[C@H]2CCC(=O)NC2)cc1Cl` [US10919852, Compound TABLE 1.341] it was “in the range around 253 nM”. Turning to `CCOc1cc(O[C@H]2CCc3c(-c4cccc(OCCCN5[C@H](C)CC[C@H]5C)c4C)cccc32)c(Cl)cc1CN1CCCC[C@H]1C(=O)O` [US10919852, Compound TABLE 1.381], the IC50 entry was “in the range around 253 nM”.

Consider `CCOc1cc(O[C@H]2CCc3c(-c4cccc(OCCCN5CCC5(C)C)c4C)cccc32)c(Cl)cc1CN1CC[C@H](C(=O)O)C1` [US10919852, Compound TABLE 1.412], for which the IC50 entry was “in the range around 253 nM”.

For the origin of these results see BindingDB's records for patent US10919852 (Chemocentryx, 2021).
